Assay results published in publication PMC6563099, “Novel Thienopyrimidine Derivative, RP-010, Induces β-Catenin Fragmentation and Is Efficacious against Prostate Cancer Cells” (Cancers, 2019).
Where two headings read alike, the source gives them in different places.

What was measured:
Assay type in all cases: cell-based
PC-3 [1] = assay: MTT cytotoxicity assay, PC-3 prostate cancer cells; conditions: MTT assay, means ± SDs of three independent experiments, read-out: IC50 ± SD, Prostate Cancer Cells, PC-3
Protocol: (§1) All the cells were cultured as adherent monolayers in culture flasks, and were used to determine the anti-cancer efficacy of RP-010. DMEM supplemented with 4.5 g of glucose, 10% fetal bovine serum (FBS) and 1% penicillin/streptomycin, was used to augment cell growth. Finally, the cells were incubated and grown in a humidified incubator containing 5% CO2 at 37 °C [50]. […] Cells were obtained from frozen stocks and cell passaging (up to P4) was performed at 80% cell confluency, using PBS and trypsin + 2.2-mM EDTA.
(§2) MTT assays were used to determine the cytotoxicity of the RP compounds, to PC cell lines, as previously described.

DU145 [2] = assay: MTT cytotoxicity assay, DU145 prostate cancer cells; conditions: means ± SDs of three independent experiments, read-out: IC50 ± SD, Prostate Cancer Cells, DU145
Protocol: as §1, §2

CRL-1459 = assay: MTT cytotoxicity assay, CRL-1459 normal colon epithelial cells; conditions: Homo sapiens, normal colon epithelial cell line, means ± SDs of three independent experiments, read-out: IC50 ± SD, Non-Prostate Cells, CRL-1459
Protocol: as §1, §2

CHO = assay: MTT cytotoxicity assay, CHO cells; conditions: Cricetulus griseus, Chinese hamster ovarian cell line, means ± SDs of three independent experiments, read-out: IC50 ± SD, Non-Prostate Cells, CHO
Protocol: as §1, §2

DU145 [3] = assay: Colony formation assay, DU145; conditions: 1 or 2 µM, vs vehicle
Protocol: (§3) This assay was performed as previously described. The DU145 and PC-3 cells were incubated with RP-010 (1 or 2 µM) for 24 h. […], the medium was discarded and cells were trypsinized with 0.25% trypsin, 2.21-mM EDTA, and then harvested, counted, and reseeded in 6-well plates at a low density (500 cell/well). The cells were allowed to form colonies for 10–14 days at 37 °C, with the medium being changed every other day. Subsequently, methanol was used to fix the colonies formed in each plate, followed by staining the colonies with 0.1% crystal violet dye for 30 min. Finally, colonies were viewed and counted under an EVOS microscope (Themo Fisher Scientific, Wayne, MI, USA). The colony formation rate equation was applied for each compound: Colony formation rate = the number of colonies/numbers of seeded cells × 100%.

PC-3 [4] = assay: Colony formation assay, PC-3; conditions: 1 or 2 µM, vs vehicle, p < 0.01
Protocol: as §3

DU145 [5] = assay: Cell cycle analysis (PI, flow cytometry), DU145; conditions: vs vehicle
Protocol: The effect of RP-010 on the cell cycle phases and function was determined using cell cycle analysis with PI staining, followed by flow cytometry. The cells were incubated with either vehicle or RP-010 (0.5, 1 or 2 µM) for 24 h. After incubation overnight, the cells were collected, washed and resuspended as an ice-cold PBS suspension. The DNA was stained with PI for at least 15 min on ice. A FACS Calibur flow cytometer from BD Biosciences (San Jose, CA, USA) was used to determine the distribution of the cells following incubation with vehicle or RP-010. Finally, the data were viewed and analysed using FlowJo v10.2 software from FlowJo LLC (Ashland, OR, USA).

DU145 [6] = assay: DAPI staining of nuclear changes, DU145
Protocol: (§4) The nuclear changes in DU145 and PC-3 cells lines produced by RP-010 (1, 2 and 4 µM) incubation at 24 or 48 h were determined using DAPI staining. The cells were seeded on culture cover glasses in 6-well plates, and allowed to grow overnight. The cells were then incubated with RP-010, for an additional 24 h, at 37 °C. The incubated cells were fixed with 4% paraformaldehyde, followed by permeabilization with 1× PBS/0.3% Triton X-100 for 25 min. Finally, DAPI stain was added, and cells were photographed using the EVOS microscope.

PC-3 [7] = assay: DAPI staining of nuclear changes, PC-3; conditions: 24 and 48 h
Protocol: as §4

[8] = tested on: Wnt/β-catenin signaling pathway proteins in DU145 cells; assay: Western analysis of Wnt/β-catenin signaling pathway proteins, DU145
Protocol: DU145 cells were incubated with RP-010 ((1 or 2 µM) for 24 h. Thereafter, the cells were subjected to a two-step lysis process to extract and separate the cytosolic and the nuclear proteins, as previously described. Next, protein separation for both cytosolic and nuclear proteins was achieved by electrophoresing the samples through acrylamide SDS-PAGE gels, followed by transfer to a PVDF membrane. The PVDF membrane was then incubated overnight with the following primary antibodies: rabbit α-tubulin, 1:4000 dilution, rabbit BAX (1:1000), rabbit BAK (1:1000), rabbit cytochrome c (1:1000), rabbit PARP (1:5000), rabbit β-Catenin (1:4000), rabbit DVL3 (1:4000), rabbit LRP-6 (1:1000), rabbit P-LRP-6 (1:1000), rabbit c-Myc (1: 4000), rabbit cyclin B1 (1:2000), rabbit Wnt 5a (1:1000), rabbit naked 1 and naked 2 (1:1000), mouse E-cadherin (1:4000), mouse N-cadherin (1:4000), mouse β-actin (1:5000) and rabbit histone (1:3000). Finally, protein expression levels were determined as described previously. In the Figure 3, Figure 5 and Figure S8, the protein blots above β-actin were cytosolic lysates, while all the proteins below β-actin and above histones (loading controls) were nuclear lysates.

[9] = DU145, 1 or 2 μM, 24 h, p < 0.01

COc1ccc(-c2nc3sc4c(c3c(=O)[nH]2)CCCC4)cc1 [RP10]
IC50 (PC-3 [1]; listed as RP-010): < 1 µM | IC50 (PC-3 [1]): 0.3 ± 0.1 µM | IC50 (DU145 [2]; Homo sapiens, DU-145, MTT assay): < 1 µM | IC50 (DU145 [2]; MTT assay): 0.5 ± 0.2 µM | IC50 (CRL-1459): 73 ± 5.3 µM | IC50 (CHO): 14 ± 1.3 µM | Size of the colonies (DU145 [3]): significantly decreased | Colony formation (DU145 [3]; p < 0.01): significantly decreased | Colony formation rate (PC-3 [4]): significantly decreased | Cell cycle distribution, G1 phase (DU145 [5]; 0.5, 1 or 2 µM): significant shift from G1 phase | Cell cycle distribution, G2 phase (DU145 [5]; 1 or 2 µM, p < 0.05): significantly accumulated in the G2 phase | Nuclear morphology (DAPI) (DU145 [6]; 1 µM, 24 h): produced multinucleated cells | Nuclear morphology (DAPI) (DU145 [6]; 1, 2 or 4 µM, 48 h): primarily produced early stage apoptotic nuclear morphology | Nuclear morphology (DAPI) (DU145 [6]; 2 or 4 µM, 24 h): significantly increased numbers of highly condensed, fragmented nuclear chromatin | Nuclear morphology (DAPI) (PC-3 [7]; 1 µM): significant increase in multinucleated cells | Nuclear morphology (DAPI) (PC-3 [7]; 2 or 4 μM): apoptosis | Expression levels of N-cadherin ([8]; 1 and 2 µM): did not significantly alter | Accumulation of lower molecular weight β-catenin fragments (P3, P4) ([8]; DU145, 1 or 2 μM, 24 h): increased the accumulation | Fragmentation of full-length β-catenin (p92) into lower molecular weight fragments (≈70 kDa) ([8]; DU145, 1 or 2 μM, 24 h): significant fragmentation | Levels of E-cadherin ([8]; DU145, 1 or 2 μM, 24 h): did not significantly alter | Levels of Wnt 5a ([8]; DU145, 1 or 2 μM, 24 h): no significant change | Levels of nuclear c-Myc ([8]; DU145, 1 or 2 μM, 24 h): significantly decreased | Levels of total active β-catenin ([8]; DU145, 1 or 2 μM, 24 h): significant decrease | Nuclear levels of Naked 1 ([8]; DU145, 1 or 2 μM, 24 h): significantly increased | Nuclear levels of Naked 2 ([8]; DU145, 1 or 2 μM, 24 h): significantly increased | Nuclear levels of cyclin B1 ([8]; DU145, 1 or 2 μM, 24 h): not significantly altered | Levels of cytosolic Naked 1 ([8]; DU145, 1 or 2 μM, 24 h, p < 0.001): significantly decreased | Cytosolic levels of cyclin B1 [8, 9]: decreased significantly | Levels of DVL3 [8, 9]: significantly decreased | Levels of cytosolic Naked 2 [8, 9]: significantly decreased | Levels of phosphorylated LRP-6 (P-LRP-6) [8, 9]: significantly decreased | Levels of LRP-6 ([8]; DU145, 1 or 2 μM, 24 h, p < 0.05): significantly decreased
